Data reported in US20090087440A1, “Methods for Treating Cancer” (SCHERING CORPORATION, priority 2001, published 2009).
Entries after “also recorded” stand apart in the source; their conditions may differ.

What was measured:
Bone marrow-derived DC = experiment: Activation of bone marrow-derived DC cultured with C26 tumor supernatant (Example IX); assay type: cell-based, mouse; settings: 10% v/v supernatant, indomethacin 1 μg/ml during supernatant preparation, anti-IL10R 10 μg/ml
Procedure: Bone marrow-derived DCs were obtained by culture of bone marrow progenitors with GM-CSF and TNFα for 5 days in the presence or absence of 10% v/v of a supernatant from C26 tumors. To prepare tumor supernatant, 0.5 cm C26 tumors grown subcutaneously in BALB/c mice were excised and minced, then cultured for 48 hours in 10 ml DMEM. The resulting supernatant was filtered at 0.2 μm and frozen before use. This supernatant contained 0.25 ng/ml IL-10 and 50 ng/ml PGE2, as determined by specific ELISA (R&D Systems). In order to inhibit PGE2 synthesis in the supernanant, the inhibitor of cyclo-oxygenase indomethacin (Sigma) was added at 1 μg/ml during the 48 h culture.
After 5 days, bone-marrow DC were activated with different combinations of optimal doses of LPS, IFNγ and anti-CD40 antibody in the presence or absence of 10 μg/ml anti-IL10R antibody. The activation of DC was measured by their expression of the co-stimulatory molecules CD40 and CD86 by FACS as well as by the production of IL-12 as detected by intra-cellular staining.

C26-6CK tumor [1] = experiment: Therapeutic effect of CpG 1668+indomethacin in the C26-6CK tumor model (Example X); assay type: in vivo, BALB/c mice; settings: C26-6CK s.c.; 5 μg CpG 1668 intra-tumorally Day 7, 14, 21; indomethacin 5 μg/ml in drinking water day 5 to 28
C26-6CK tumor [2] = experiment: Therapeutic effect in the C26-6CK tumor model (Example V)
Procedure: • 1×10^5 C26-6CK tumor cells were implanted s.c. at Day 0 in groups of seven 8 week-old female BALB/c mice and treated as follow: • 10 μg of CpG 1668 were injected peri- (when tumor too small) or intratumorally at Day 7, 14, and 21. • 250 μg anti-IL10R purified antibody were injected intraperitoneally twice a week starting at Day 7 (stop Day 24).
(§1) Tumor development was assessed three times a week by palpation and tumors measured using a caliper with tumor volume=I^2×L×0.4, I being the small diameter and L the large diameter. Mice were sacrificed when tumors exceeded 1500 mm^3 or for humane criteria.

[3] = test system: C26-6CK tumor-infiltrating dendritic cells; experiment: IL-12 p70 and TNFα ELISA in supernatants of activated C26-6CK TIDC (Example II); assay type: cell-based, mouse
C26 tumor = experiment: Therapeutic effect in the C26 tumor model (Example VI); assay type: in vivo, BALB/c mice
Description: Control antibody was purified GL113 antibody.

[4] = test system: C26-6CK tumor-infiltrating dendritic cells; experiment: Mixed leukocyte reaction with activated C26-6CK TIDC (Example III); assay type: cell-based, mouse; settings: overnight activation, 5 days with allogeneic T cells
B16F0 melanoma tumor = experiment: Therapeutic effect in the B16F0 melanoma tumor model (Example VII)
Procedure: • 5×10^4 B16F0 tumor cells were implanted s.c. at Day 0 in groups of seven 8 week-old female C57BL/6 mice and treated as follow: • 5 μg of CpG 1668 were injected intra-tumorally at Day 7, 14, and 21. • 250 μg anti-IL10R purified antibody were injected intraperitoneally at Day 7, 14, and 21. Control antibody was purified GL113 antibody.
as §1

[5] = test system: C26-6CK tumor-infiltrating dendritic cells; experiment: Activation of C26-6CK tumor-infiltrating DC with LPS, IFNγ and anti-CD40, compared with bone marrow-derived DC (Example I); assay type: cell-based, mouse

**Q.** `COc1ccc2c(c1)c(CC(=O)O)c(C)n2C(=O)c1ccc(Cl)cc1` [indomethacin] was tested. Which “relief of the inhibition of DC activation by C26 tumor supernatant (CD40, CD86, IL-12 expression)” value (Bone marrow-derived DC) did it give?
**A.** relieved partially

**Q.** And the “mice that did not develop tumor” value (C26-6CK tumor [1])?
**A.** 1/7

**Q.** For “CpG 1668: TLR-9 ligand in the mouse, sequence TCC-ATG-ACG-TTC-CTG-ATG-CT (SEQ ID NO: 5), MWG Biotech (TCCATGACGTTCCTGATGCT; DNA, all phosphorothioate, methylation of C not given here)”, which “mice that did not develop a tumor” value (C26-6CK tumor [2]; C26-6CK s.c., 10 μg CpG 1668 peri- or intratumorally Day 7, 14, 21) is on record?
**A.** 1/7

**Q.** And the “mean volume of tumors versus control group” value (C26-6CK tumor [2]; C26-6CK s.c., after three weeks)?
**A.** smaller than in the control group

**Q.** What about the overall anti-tumor effect (C26-6CK tumor [2]; C26-6CK tumor model) of the same compound?
**A.** minor effect; also recorded: marginal effect

**Q.** What about the “mice that did not develop tumor” value (C26-6CK tumor [1]) of the same compound?
**A.** 1/7

**Q.** And the “IL-12 p70 production in culture supernatants (ELISA)” value ([3]; C26-6CK TIDC, GM-CSF 10 ng/ml, 24 h, CpG 1668 5 μg/ml, anti-IL10R 10 μg/ml)?
**A.** does not induce

**Q.** What about the “activating tumor-infiltrating dendritic cells” value ([3]; Examples II and III) of the same compound?
**A.** marginal effect

**Q.** What about the overall anti-tumor effect (C26 tumor) of the same compound?
**A.** marginal effect

**Q.** And the “MLR stimulatory capacity of tumor-infiltrating DC (thymidine incorporation)” value [4]?
**A.** minimally enhanced

**Q.** What about the overall anti-tumor effect (B16F0 melanoma tumor) of the same compound?
**A.** marginal effect

**Q.** Which “response of tumor-infiltrating DC to stimulation (co-stimulatory molecules, MLR, IL-12 and TNFα)” value [5] does the source give for IFNγ: cytokine IFNγ (R&D Systems) here?
**A.** did not respond
